Assay results as given in paper PMC11694611, “α‐Triazolylboronic Acids: A Novel Scaffold to Target FLT3 in AML” (Chemmedchem, 2024).
Read-outs that look alike come from different tables or passages of the source.

Columns and labels:
[1] = biological target: T1, recombinant His-tagged FLT3 kinase domain (aa 569–992) (Homo sapiens, UniProt P36888); assay: ELISA-based in vitro FLT3 kinase assay; type: biochemical; details: recombinant FLT3, 300 μM ATP
T1 construct: FLT3 kinase domain (aa 569–992); His; made in house; host or cells: Sf9 cells
T1 sequence (P36888 569-992): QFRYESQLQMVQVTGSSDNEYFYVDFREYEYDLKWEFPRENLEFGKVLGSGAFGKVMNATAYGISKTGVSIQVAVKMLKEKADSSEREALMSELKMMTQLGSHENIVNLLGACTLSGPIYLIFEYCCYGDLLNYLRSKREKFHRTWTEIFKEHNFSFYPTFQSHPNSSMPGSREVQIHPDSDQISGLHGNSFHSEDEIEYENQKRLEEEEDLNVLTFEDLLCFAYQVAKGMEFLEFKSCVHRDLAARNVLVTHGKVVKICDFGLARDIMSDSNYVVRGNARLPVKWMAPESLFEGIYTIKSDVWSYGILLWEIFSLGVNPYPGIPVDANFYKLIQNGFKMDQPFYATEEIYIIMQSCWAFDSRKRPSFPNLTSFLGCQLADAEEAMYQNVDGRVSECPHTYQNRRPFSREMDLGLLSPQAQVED
Description: (§1) In vitro kinase assays and cell viability assays were performed as described (Mologni et al., 2022).[50] Briefly, recombinant His‐tagged FLT3 kinase domain (aa 569–992) was expressed in Sf9 cells and purified by nickel ion affinity chromatography. The purified enzyme was employed in an ELISA‐based kinase assay with 300 μM ATP and a Tyr‐phosphorylatable substrate peptide, using an anti‐phosphotyrosine antibody for detection (PY20; Santa Cruz Biotech). Cell viability was determined by MTS assay using the CellTiter 96® AQueous One Solution Cell Proliferation Assay kit (Promega) according to manufacturer's instructions. Dose‐response curves were calculated by non‐linear regression (log[inhibitor] vs normalized response) using GraphPad Prism software.

[2] = system: MOLM-14 cells (FLT3-ITD); assay: Cell viability by MTS assay, MOLM-14 cells; type: cell-based; details: Homo sapiens, read-out: MOLM-14 (IC50, mean±SEM)
[3] = system: MV-4-11 cells (FLT3-ITD); assay: Cell viability by MTS assay, MV-4-11 cells; type: cell-based; details: Homo sapiens, MV4-11, read-out: MV-4-11 (IC50, mean±SEM)
Description: Cellular assays were carried out on MV‐4‐11 cells, driven by the FLT3‐ITD mutation.
as §1, with “The” for “In vitro kinase assays and cell viability assays were performed as described (Mologni et al., 2022).[50] Briefly, recombinant His‐tagged FLT3 kinase domain (aa 569–992) was expressed in Sf9 cells and purified by nickel ion affinity chromatography. The”

[4] = system: FLT3-wild type HL60 cells; assay: Cytotoxicity by MTS assay, control cell line HL60; type: cell-based; details: for IC50: Homo sapiens, HL-60, read-out: HL60 (IC50, mean±SEM)
Description: Compounds 4 a, 4 d, 4 e, 4 g and 4 q were among the best inhibitors in enzymatic assays and confirmed their activity also in cellular tests on FLT3‐driven MV‐4‐11 and on MOLM‐14 cell lines. To confirm their cellular mechanism of action, we assayed their cytotoxicity against FLT3‐wild type HL60 cells.
as §1

[5] = cited from earlier work
[6] = Table 1, read-out: FLT3 Kinase Activity (IC50, mean±SEM)
[7] = Table 2, FLT3-ITD cell line, MTS viability
[8] = Table 2, read-out: FLT3 Kinase (IC50, mean±SEM)
[9] = Table 3, FLT3-wild type control cell line
[10] = Table 4, control analogues lacking boronic group

Work on `O=C(CSc1ccncc1)NCB(O)O` [1 f] yielded an IC50 [1, 6] greater than 100 µM.
Work on `Cc1onc(-c2ccccc2Cl)c1C(=O)NCB(O)O` [1 c] yielded an IC50 [1, 6] greater than 100 µM.
`OB(O)Cn1cc(-c2cccs2)nn1` [4 j] gave an IC50 [2, 7] of 11 ± 2 µM, an IC50 [1, 8] of 76 ± 13 µM and an IC50 [3, 7] of 100 µM.
Compound `COC(=O)c1ccc(CS(=O)(=O)NCc2cn(CB(O)O)nn2)cc1` [4 m] has an IC50 [1, 8] greater than 100 µM and an IC50 [3, 7] greater than 100 µM.
For `OB(O)Cn1cc(-c2cccc(Cl)c2)nn1` [4 g], the IC50 [2, 7] was 0.68 ± 0.08 µM, the IC50 [4, 9] was 15 ± 1 µM and the “HL60 (IC50, mean±SEM)” value [4, 9] was “moderate inhibition of HL60”. The IC50 [1, 6] was 18 ± 5 µM and the IC50 [3, 7] was 2.7 ± 0.9 µM.
`CC(=O)NC(Cn1cc(C(C)(C)O)nn1)B(O)O` (stereo not shown) [2 e] showed an IC50 [1, 6] greater than 100 µM.
With `O=C(O)c1cccc(-c2cn(CB(O)O)nn2)c1` [4 c] the IC50 [1, 6] was greater than 100 µM and the IC50 [3, 7] was greater than 100 µM.
With `Nc1cccc(-c2cn(CC(NC(=O)Cc3ccccc3)B(O)O)nn2)c1` (stereo not shown) [2 a] the IC50 [1, 6] was greater than 100 µM.
With `OB(O)Cn1cc(-c2cnccn2)nn1` [4 h] the IC50 [1, 8] was greater than 100 µM and the IC50 [3, 7] was greater than 100 µM.
With `Cc1ccc(C(=O)Nc2ccc(CN3CCN(C)CC3)c(C(F)(F)F)c2)cc1C#Cc1cnc2cccnn12` [ponatinib, reference compound] the IC50 [2, 7] was 0.001 ± 0.0001 µM and the IC50 [3, 7] was 0.007 ± 0.002 µM.
In the case of `OB(O)Cn1cc(CNc2ccccc2)nn1` [4 u], the IC50 [2, 7] is reported as 8.7 ± 1.4 µM, the “FLT3 Kinase (IC50, mean±SEM)” value ([1]; Table 2) is reported as “lose enzymatic activity” and the IC50 [1, 8] is reported as greater than 100 µM. It also gave an IC50 [3, 7] of 7.6 ± 3.9 µM.
In the case of `O=S(=O)(Cc1ccccc1)NCB(O)O` [3 a], the IC50 [1, 6] is reported as greater than 100 µM.
In the case of `O=C(Cc1ccc(-c2nn[nH]n2)cc1)NCB(O)O` [1 b], the IC50 [1, 6] is reported as greater than 100 µM.
In the case of `CS(=O)(=O)NCc1cn(CB(O)O)nn1` [4 p], the IC50 [1, 8] is reported as 42 ± 5 µM and the IC50 [3, 7] is reported as greater than 100 µM.
With `O=C(Cc1ccc(O)c(O)c1)NCB(O)O` [1 g] the IC50 [1, 6] was greater than 100 µM.
With `Cc1cccc(-c2cn(CB(O)O)nn2)c1` [4 d] the IC50 [2, 7] was 3 ± 0.5 µM, the IC50 [4, 9] was 32 ± 4 µM and the “HL60 (IC50, mean±SEM)” value [4, 9] was “moderate inhibition of HL60”. For the same compound, the IC50 [1, 6] was 25 ± 2 µM and the IC50 [3, 7] was 11 ± 1 µM.
Compound `COC(=O)c1cccc(CS(=O)(=O)NCc2cn(CB(O)O)nn2)c1` [4 o] has an IC50 [1, 8] of 65 ± 11 µM and an IC50 [3, 7] greater than 100 µM.
For `O=S(=O)(CC(F)(F)F)NCc1cn(CB(O)O)nn1` [4 k], the IC50 [1, 8] was 5.8 ± 0.9 µM and the IC50 [3, 7] was greater than 100 µM.
For `NS(=O)(=O)c1cccc(-c2cn(CB(O)O)nn2)c1` [4 f], the IC50 [1, 6] was greater than 100 µM and the IC50 [3, 7] was greater than 100 µM.
`Cc1ccc(S(=O)(=O)Nc2cccc(-c3cn(CB(O)O)nn3)c2)cc1` [4 a] showed an IC50 [2, 7] of 5.8 ± 0.7 µM, an IC50 [4, 9] greater than 100 µM and an IC50 [1, 6] of 18 ± 1 µM. It also gave an IC50 [3, 7] of 14 ± 0.2 µM.
In the case of `OB(O)Cn1cc(COc2ccccc2)nn1` [4 r], the IC50 [2, 7] is reported as 0.16 ± 0.01 µM, the “FLT3 Kinase (IC50, mean±SEM)” value ([1]; Table 2) is reported as “do not inhibit FLT3” and the IC50 [1, 8] is reported as greater than 100 µM. It also gave an IC50 [3, 7] of 1.1 ± 0.1 µM.
With `CC(C)C(NS(=O)(=O)Cc1ccccc1)B(O)O` (stereo not shown) [3 b] the IC50 [1, 6] was greater than 100 µM.
Work on `O=C(Nc1ccccc1)NC(Cc1cccc(C(=O)O)c1)B(O)O` (stereo not shown) [1 a] yielded an IC50 [1, 6] greater than 100 µM.
`CC(NS(=O)(=O)Cc1ccccc1)B(O)O` (stereo not shown) [3 c] gave an IC50 [1, 6] greater than 100 µM.
Compound `O=C(O)c1cccc(CS(=O)(=O)NCc2cn(CB(O)O)nn2)c1` [4 n] has an IC50 [1, 8] greater than 100 µM and an IC50 [3, 7] greater than 100 µM.
For `NC(=O)c1cccc(-c2cn(CB(O)O)nn2)c1` [4 b], the IC50 [1, 6] was greater than 100 µM and the IC50 [3, 7] was greater than 100 µM.
Work on `O=S(=O)(NCc1cn(CB(O)O)nn1)c1cccs1` [4 l] yielded an IC50 [1, 8] of 25 ± 5 µM and an IC50 [3, 7] greater than 100 µM.
In the case of `Nc1nnc(SCC(=O)NC(Cn2cc(C(=O)O)nn2)B(O)O)s1` (stereo not shown) [2 c], the IC50 [1, 6] is reported as greater than 100 µM.
With `O=C(NCc1cn(CB(O)O)nn1)C(F)(F)F` [4 v] the “FLT3 Kinase (IC50, mean±SEM)” value ([1]; Table 2) was “lose enzymatic activity”, the IC50 [1, 8] was greater than 100 µM and the IC50 [3, 7] was greater than 100 µM.
With `Nc1ccc(-c2cn(CC(=O)O)nn2)cc1` [5 e, 2‐(4‐(4‐aminophenyl)‐1H‐1,2,3‐triazol‐1‐yl)acetic acid] the IC50 [2, 10] was greater than 100 µM, the IC50 [4, 10] was greater than 100 µM and the IC50 [3, 10] was greater than 100 µM.
`OB(O)Cn1cc(-c2cccnc2)nn1` [4 i] gave an IC50 [1, 8] greater than 100 µM and an IC50 [3, 7] greater than 100 µM.
Work on `O=C(Cc1cccs1)NC(B(O)O)c1ccccc1` (stereo not shown) [1 d] yielded an IC50 [1, 6] greater than 100 µM.
With `Nc1cccc(-c2cn(CB(O)O)nn2)c1` [4 e] the IC50 [2, 7] was 11 ± 1 µM, the IC50 [4, 9] was greater than 100 µM and the IC50 [1, 6] was 6.7 ± 1.7 µM. The IC50 [3, 7] was 14 ± 3 µM.
In the case of `[Cl-].[Na+]` [NaCl], the LD50 [5] is listed as 3000 mg/kg.
For `O=C(OCc1cn(CB(O)O)nn1)c1ccccc1` [4 w], the IC50 [2, 7] was 0.35 ± 0.01 µM, the “FLT3 Kinase (IC50, mean±SEM)” value ([1]; Table 2) was “do not inhibit FLT3” and the IC50 [1, 8] was greater than 100 µM. It also gave an IC50 [3, 7] of 1.4 ± 0.3 µM.
In the case of `O=C(NCc1cn(CB(O)O)nn1)c1ccccc1` [4 t], the IC50 [1, 8] is reported as 3.2 ± 0.4 µM and the IC50 [3, 7] is reported as greater than 100 µM.
With `NC(=O)c1cn(CC(NC(=O)Cc2cccs2)B(O)O)nn1` (stereo not shown) [2 b] the IC50 [1, 6] was greater than 100 µM.
For `O=C(NCB(O)O)c1ccc(-c2nnn[nH]2)cc1` [1 e], the IC50 [1, 6] was greater than 100 µM.
`CCCCn1cc(-c2ccc(N)cc2)nn1` [6 e, 4‐(1‐butyl‐1H‐1,2,3‐triazol‐4‐yl)aniline] showed an IC50 [2, 10] greater than 100 µM, an IC50 [4, 10] greater than 100 µM and an IC50 [3, 10] greater than 100 µM.
With `Cc1ccc(S(=O)(=O)Nc2cccc(OCc3cn(CB(O)O)nn3)c2)cc1` [4 q] the IC50 [2, 7] was 4.3 ± 0.5 µM, the IC50 [4, 9] was greater than 100 µM and the IC50 [1, 8] was 18 ± 3 µM. For the same compound, the IC50 [3, 7] was 10 ± 1 µM.
Compound `CC(=O)NC(Cn1cc(-c2ccccc2)nn1)B(O)O` (stereo not shown) [2 d] has an IC50 [1, 6] greater than 100 µM.
